Tested on: Recombinant human cathepsin A
Test: Cathepsin A inhibitory activity (Bodipy FL-bradykinin substrate, microfluidic capillary electrophoresis)
Type: biochemical
Details: read-out: CATH A IC50
Protocol: Pharmacological Tests a) Cathepsin a Inhibitory Activity
Recombinant human cathepsin A (residues 29-480, with a C-terminal 10-His tag; R&D Systems, #1049-SE) was proteolytically activated with recombinant human cathepsin L (R&D Systems, #952-CY). Briefly, cathepsin A was incubated at 10 μg/ml with cathepsin L at 1 μg/ml in activation buffer (25 mM 2-(morpholin-4-yl)-ethanesulfonic acid (MES), pH 6.0, containing 5 mM dithiothreitol (DTT)) for 15 min at 37° C.
The activated cathepsin A was diluted in assay buffer (25 mM MES, pH 5.5, containing 5 mM DTT) and mixed with the test compound (dissolved in assay buffer containing (v/v) 3% DMSO) or, in the control experiments, with the vehicle in a multiple assay plate. After incubation for 15 min at room temperature, as substrate then bradykinin carrying an N-terminal ®Bodipy FL (4,4-difluoro-5,7-dimethyl-4-bora-3a,4a-diaza-s-indacene-3-propionyl) label (JPT Peptide Technologies GmbH; dissolved in assay buffer) was added to the mixture. The final concentration of cathepsin A was 833 ng/ml and the final concentration of labeled bradykinin 2 μM. After incubation for 15 min at room temperature the reaction was stopped by the addition of stop buffer (130 mM 2-(4-(2-hydroxy-ethyl)-piperazin-1-yl)-ethanesulfonic acid, pH 7.4, containing (v/v) 0.013% ®Triton X-100, 0.13% Coating Reagent 3 (Caliper Life Sciences), 6.5% DMSO and 20 μM ebelactone B (Sigma, # E0886)).
Uncleaved substrate and product were then separated by a microfluidic capillary electrophoresis on a LabChip® 3000 Drug Discovery System (12-Sipper-Chip; Caliper Life Sciences) and quantified by determination of the respective peak areas. Substrate turnover was calculated by dividing product peak area by the sum of substrate and product peak areas, and the enzyme activity and the inhibitory effect of the test compound thus quantified.

Compound | IC50 [nM]
COc1ccc(OC(F)(F)F)cc1-c1cc(F)cc(C(CC(=O)O)c2ncc(C)s2)c1 (stereo not drawn) [compound 124] | 275
COc1cccc(C#N)c1-c1cc(Cl)cc(C(CC(=O)O)c2ncc(C)s2)c1 (stereo not drawn) [compound 88] | 103
COc1ccc(C)cc1-c1cccc(C(CC(=O)O)c2nnc(C)o2)c1 (stereo not drawn) [compound 136] | 24
COc1ccc(Cl)cc1-c1cc(Cl)cc(C(CC(=O)O)c2ncc(C)s2)c1 (stereo not drawn) [compound 8] | 34
COc1cc(C)cc(OC)c1-c1cc(F)cc(C(CC(=O)O)c2ncc(C)s2)c1 (stereo not drawn) [compound 99] | 28
COc1ccc(C)cc1-c1ccc(OC)c(C(CC(=O)O)c2ncc(C)s2)c1 (stereo not drawn) [compound 67] | 9690
COc1cccc(C(=O)N2CCCC2)c1-c1cc(F)cc(C(CC(=O)O)c2nnc(C)o2)c1 (stereo not drawn) [compound 174] | 5260
COc1ccc(OC)c(-c2cncc(C(CC(=O)O)c3nnc(C)o3)c2)c1 (stereo not drawn) [compound 180] | 3520
COc1cc(C)cc(OC)c1-c1cncc(C(CC(=O)O)c2nnc(C)o2)c1 (stereo not drawn) [compound 186] | 343
COc1c(Cl)cccc1-c1cc(Cl)cc(C(CC(=O)O)c2ncc(C)s2)c1 (stereo not drawn) [compound 92] | 134
COc1ccc(C#N)cc1-c1cccc(C(CC(=O)O)c2nccs2)c1 (stereo not drawn) [compound 39] | 618
COc1ccc(C)cc1-c1cc(C(CC(=O)O)c2nnc(C)o2)cc(C(F)(F)F)c1 (stereo not drawn) [compound 202] | 17
COc1cccc(OC)c1-c1cccc(C(CC(=O)O)c2ncc(C)s2)c1 (stereo not drawn) [compound 51] | 11
COc1cc(C)cc(OC)c1-c1cccc(C(CC(=O)O)c2ncco2)c1 (stereo not drawn) [compound 16] | 49
Cc1nnc(C(CC(=O)O)c2cccc(-c3ccccc3OC(F)(F)F)c2)o1 (stereo not drawn) [compound 148] | 243
COc1ccc(OC)c(-c2cccc(C(CC(=O)O)c3nnc(C)o3)c2)c1 (stereo not drawn) [compound 138] | 41
COc1ccc(-c2cc(Cl)cc(C(CC(=O)O)c3nnc(C)o3)c2)c(OC)c1 (stereo not drawn) [compound 172] | 33
COC(=O)c1ccc(OC)c(-c2cccc(C(CC(=O)O)c3nccs3)c2)c1 (stereo not drawn) [compound 23] | 140
COc1cc(F)ccc1-c1cccc(C(CC(=O)O)c2nccs2)c1 (stereo not drawn) [compound 37] | 503

Compound | IC50 [nM]
COc1c(F)cccc1-c1cccc(C(CC(=O)O)c2nccs2)c1 (stereo not drawn) [compound 42] | 1040
COc1cccc(OC)c1-c1cc(Cl)cc(C(CC(=O)O)c2nnc(C)o2)c1 (stereo not drawn) [compound 154] | 5
CCOc1ccccc1-c1cc(C(CC(=O)O)c2nnc(C)o2)cc(C(F)(F)F)c1 (stereo not drawn) [compound 210] | 14
COc1ccc(OC(F)(F)F)cc1-c1cc(C(CC(=O)O)c2nnc(C)o2)cc(C(F)(F)F)c1 (stereo not drawn) [compound 213] | 51
COc1ccc(-c2cncc(C(CC(=O)O)c3nnc(C)o3)c2)c(OC)c1 (stereo not drawn) [compound 194] | 7140
COc1ccc(C(C)C)cc1-c1cccc(C(CC(=O)O)c2nccs2)c1 (stereo not drawn) [compound 2] | 132
COc1ccc(O)cc1-c1cccc(C(CC(=O)O)c2nccs2)c1 (stereo not drawn) [compound 32] | 307
COc1ccc(C(C)(C)C#N)cc1-c1cc(F)cc(C(CC(=O)O)c2nnc(C)o2)c1 (stereo not drawn) [compound 222] | 4
COc1ccc(C(C)(C)C)cc1-c1cncc(C(CC(=O)O)c2nnc(C)o2)c1 (stereo not drawn) [compound 182] | 452
COc1ccc(OC(F)(F)F)cc1-c1cc(F)cc(C(CC(=O)O)c2ncco2)c1 (stereo not drawn) [compound 122] | 222
COc1ccccc1-c1cncc(C(CC(=O)O)c2nnc(C)o2)c1 (stereo not drawn) [compound 190] | 5800
CCOc1ccccc1-c1cc(F)cc(C(CC(=O)O)c2nnc(C)o2)c1 (stereo not drawn) [compound 175] | 104
COc1c(F)cc(F)cc1-c1cccc(C(CC(=O)O)c2nccs2)c1 (stereo not drawn) [compound 36] | 467
COc1ccccc1-c1cccc(C(CC(=O)O)c2nccs2)c1 (stereo not drawn) [compound 17] | 154
COc1ccc(S(C)(=O)=O)cc1-c1cc(C(CC(=O)O)c2nnc(C)o2)cc(C(F)(F)F)c1 (stereo not drawn) [compound 215] | 130
COc1cc(C(F)(F)F)ccc1-c1cccc(C(CC(=O)O)c2nccs2)c1 (stereo not drawn) [compound 48] | 2280
COc1c(C)cccc1-c1cccc(C(CC(=O)O)c2nccs2)c1 (stereo not drawn) [compound 40] | 844
COc1ccc(-c2cc(C(CC(=O)O)c3nnc(C)o3)cc(C(F)(F)F)c2)c(OC)c1 (stereo not drawn) [compound 211] | 23

More lines, in order of falling IC50, values ahead:

IC50 [nM] | Compound
3560 | COc1cccc(Cl)c1-c1cncc(C(CC(=O)O)c2nnc(C)o2)c1 (stereo not drawn) [compound 199]
3380 | COc1ccc(C(C)(C)C)cc1-c1cccc([C@@H](CC(=O)O)c2nccs2)c1 [compound 6]
3050 | COc1ccc(Cl)cc1-c1ccc(OC)c(C(CC(=O)O)c2ncc(C)s2)c1 (stereo not drawn) [compound 65]
1750 | COc1cccc(C#N)c1-c1cccc(C(CC(=O)O)c2nccs2)c1 (stereo not drawn) [compound 47]
1230 | O=C(O)CC(c1cccc(-c2ccccc2OC(F)(F)F)c1)c1nccs1 (stereo not drawn) [compound 43]
1170 | COc1ccc(F)cc1-c1ccc(OC)c(C(CC(=O)O)c2ncc(C)s2)c1 (stereo not drawn) [compound 63]
950 | COc1cccc(-c2cccc(C(CC(=O)O)c3nccs3)c2)c1OC (stereo not drawn) [compound 41]
530 | COc1ccc(C(C)(C)C)cc1-c1cccc(C(CC(=O)O)c2nc(C)c(C)s2)c1 (stereo not drawn) [compound 18]
410 | COc1c(C)cccc1-c1cc(F)cc(C(CC(=O)O)c2ncc(C)s2)c1 (stereo not drawn) [compound 128]
409 | CC(C)Oc1ccccc1-c1cccc(C(CC(=O)O)c2nccs2)c1 (stereo not drawn) [compound 35]
367 | COc1c(F)cc(F)cc1-c1cccc(C(CC(=O)O)c2ncc(C)s2)c1 (stereo not drawn) [compound 61]
265 | COc1ccc(S(C)(=O)=O)cc1-c1cccc(C(CC(=O)O)c2nnc(C)o2)c1 (stereo not drawn) [compound 149]
231 | Cc1nnc(C(CC(=O)O)c2cc(F)cc(-c3ccccc3OC(F)(F)F)c2)o1 (stereo not drawn) [compound 165]
221 | Cc1cnc(C(CC(=O)O)c2cc(Cl)cc(-c3ccccc3OC(F)(F)F)c2)s1 (stereo not drawn) [compound 95]
201 | COc1cc(CO)ccc1-c1cccc(C(CC(=O)O)c2nccs2)c1 (stereo not drawn) [compound 30]
165 | COc1ccc(OC(F)(F)F)cc1-c1cc(Cl)cc(C(CC(=O)O)c2ncc(C)s2)c1 (stereo not drawn) [compound 94]
156 | COc1ccc(F)c(F)c1-c1cccc(C(CC(=O)O)c2nccs2)c1 (stereo not drawn) [compound 27]
134 | COc1ccc(C(F)(F)F)cc1-c1cccc(C(CC(=O)O)c2nccs2)c1 (stereo not drawn) [compound 22]
122 | COc1ccc(OC)c(-c2cc(F)cc(C(CC(=O)O)c3ncc(C)s3)c2)c1 (stereo not drawn) [compound 112]

IC50 [nM] | Compound
119 | COc1ccc(C(C)(C)C)cc1-c1cccc(C(CC(=O)O)c2nccs2)c1 (stereo not drawn) [compound 4]
116 | COc1cccc(F)c1-c1cccc(C(CC(=O)O)c2nnc(C)o2)c1 (stereo not drawn) [compound 145]
116 | COc1ccccc1-c1cc(F)cc(C(CC(=O)O)c2ncc(C)s2)c1 (stereo not drawn) [compound 110]
104 | COc1cccc(C#N)c1-c1cc(Cl)cc(C(CC(=O)O)c2nnc(C)o2)c1 (stereo not drawn) [compound 156]
93 | COc1ccc(C(C)C)cc1-c1cc(Cl)cc(C(CC(=O)O)c2ncc(C)s2)c1 (stereo not drawn) [compound 87]
60 | COc1ccc(F)cc1-c1cccc(C(CC(=O)O)c2nnc(C)o2)c1 (stereo not drawn) [compound 139]
53 | COc1c(C)cccc1-c1cc(C(CC(=O)O)c2nnc(C)o2)cc(C(F)(F)F)c1 (stereo not drawn) [compound 220]
52 | COc1cccc(CO)c1-c1cc(Cl)cc(C(CC(=O)O)c2ncc(C)s2)c1 (stereo not drawn) [compound 82]
52 | COc1ccc(C)cc1-c1cc(F)cc(C(CC(=O)O)c2ncc(C)s2)c1 (stereo not drawn) [compound 100]
51 | COc1ccc(C(C)(C)C)cc1-c1cccc([C@@H](CC(=O)O)c2ncco2)c1 [compound 11]
38 | COc1ccc(F)cc1-c1cc(Cl)cc(C(CC(=O)O)c2ncc(C)s2)c1 (stereo not drawn) [compound 79]
30 | COc1cccc(OC)c1-c1cccc(C(CC(=O)O)c2nccs2)c1 (stereo not drawn) [compound 20]
28 | COc1ccc(OC)c(-c2cc(Cl)cc(C(CC(=O)O)c3ncc(C)s3)c2)c1 (stereo not drawn) [compound 76]
24 | COc1cc(C)cc(OC)c1-c1cccc(C(CC(=O)O)c2nnc(C)o2)c1 (stereo not drawn) [compound 137]
22 | COc1ccc(CO)cc1-c1cc(C(CC(=O)O)c2nnc(C)o2)cc(C(F)(F)F)c1 (stereo not drawn) [compound 221]
17 | COc1ccc(C(C)(C)C)cc1-c1cc(C(CC(=O)O)c2nnc(C)o2)cc(C(F)(F)F)c1 (stereo not drawn) [compound 203]
8 | COc1cccc(F)c1-c1cc(C(CC(=O)O)c2nnc(C)o2)cc(C(F)(F)F)c1 (stereo not drawn) [compound 212]
8 | COc1cc(C)cc(OC)c1-c1cc(Cl)cc(C(CC(=O)O)c2nnc(C)o2)c1 (stereo not drawn) [compound 155]
5 | COc1cccc(OC)c1-c1cc(F)cc(C(CC(=O)O)c2ncc(C)s2)c1 (stereo not drawn) [compound 7]

Reference: patent US9150526B2, “Biaryl-propionic acid derivatives and their use as pharmaceuticals” (SANOFI, priority 2013, dated 2015)
